Results from PMC8145938, “Triphenilphosphonium Analogs of Chloramphenicol as Dual-Acting Antimicrobial and Antiproliferating Agents” (Antibiotics, 2021).

How the values were obtained:
[1] = system: normal human fibroblasts; experiment: cell viability of normal cells; format: cell-based; settings: submicromolar concentrations, preliminary results
Procedure: We also compared the effects of the obtained compounds on the suppression of normal cell growth.
(§1) The survival assay was performed essentially as described earlier. In short, cells were seeded into a 96-well plate, followed by treatment with increasing concentrations of the corresponding CAM-TPP derivatives for 3 days. 3-(4,5-dimethylthiazol-2-yl)-2,5-diphenyltetrazolium bromide (0.5 mg/mL MTT; Sigma-Aldrich) dissolved in media was added to each well. Following incubation for 2 h, the supernatant was carefully removed from the wells, and 100 µL of a DMSO:ethanol mix (1:1) was added to each well, followed by shaking for 10 min. The absorbance was measured at 570 nm in Bio Spec 1601, Shimadzu spectrometer. The OD570 of the DMSO solution in each well was considered to be proportional to the number of cells. The OD570 of the control (treatment without supplement) was considered to be 100%. The results were expressed as the means ± SEM. The data were analyzed using the GraphPad Prism 7 PRIZM computer software under the license of the Statistical Department (Vall’ d Hebron Hospital, Barcelona, Spain).

[2] = system: CSC-like TNBC cells (MDA-MB-231 and BT-549, sensitive and chemoresistant); experiment: tumoursphere formation and viability of CSC-like cells; format: cell-based; settings: for survival of CSCs: CSCs from parental and resistant TNBC cell lines; for spheroid formation: non-adherent conditions, 5 days
Text: Several TPP-containing compounds have been proposed for the elimination of CSCs by the Lisanti group. In the current work, we studied the effect of CAM-TPP derivatives on CSC-like TNBC cell models.
The MDA-MB-231 (RRID: CVCL_0062) and BT-549 (RRID: CVCL_1092) cell lines were purchased from ATCC and cultured in DMEM/F12 (Gibco, Life Technologies, 31330-038) supplemented with 10% FBS, 1% Pen-Strep, 1% Sodium Pyruvate, and 1% L-glutamine. Chemoresistant cell lines were established with continuous treatment for 6 months with the anticancer therapeutic agent, cyclophosphamide (Rcyclo), as previously described. These cell lines were authenticated using short tandem repeat (STR) profiling within the last three years. To obtain CSC-like cells, a single cell suspension was prepared using enzymatic disaggregation (1× Trypsin-EDTA, Gibco, 25300062), and the cells were plated at a density of 10.000–12.000 cells per ml in a Cancer Stem Cell medium (C-28070, PromoCell, Heidelberg, Germany) in poly-2-hydroxyethyl methacrylate (Poly-HEMA, Santa Cruz Biotechnology, Dallas, TX, USA, sc-253284)-coated plates. […] The cells were […] with corresponding compounds or DMSO (control), followed by the abovementioned procedure of tumoursphere formation. The relative numbers of tumourspheres per well were counted manually. The experiments were performed independently at least 2 times, with several replicates.
as §1

Row | Compound | effect on normal cell growth compared with cancer cells [1] | survival of CSCs [2] | spheroid formation [2]
1 | O=C(CCCCCCCCCC[P+](c1ccccc1)(c1ccccc1)c1ccccc1)N[C@H](CO)[C@H](O)c1ccc([N+](=O)[O-])cc1 [CAM-C10-TPP, (N-{[(1R,2R)-1,3-dihydroxy-1-(4-nitrophenyl)propan-2-yl]amino}-11-oxoundecyl)(triphenyl)phosphonium bromide] | less affected by submicromolar concentrations of CAM-TPP derivatives than cancer cells | reduced the survival of CSCs formed from parental and resistant TNBC cell lines | significant decrease in spheroid formation
2 | O=C(CCCCCCCCCC[P+](c1ccccc1)(c1ccccc1)c1ccccc1)NCCCC(=O)N[C@H](CO)[C@H](O)c1ccc([N+](=O)[O-])cc1 [CAM-C14-TPP, N-[(1R,2R)-1,3-dihydroxy-1-(4-nitrophenyl)propan-2-yl]-4-(triphenyl)phosphoniumundecanamidobutamide bromide] |  | reduced the survival of CSCs formed from parental and resistant TNBC cell lines | significant decrease in spheroid formation
